Measurements published in patent US20240174636A1, “NOVEL INDOLEAMINE 2,3-DIOXYGENASE INHIBITORS, PROCESSES FOR THE PREPARATION THEREOF AND PHARMACEUTICAL COMPOSITIONS COMPRISING THE SAME” (YUHAN CORPORATION, priority 2021, published 2024).

How the values were obtained:
[1] = molecular target: T1, IDO1 (Homo sapiens, UniProt P14902); assay: IDO1 cellular activity using Hela cells (IFN-gamma induced IDO expression, kynurenine absorbance at 480 nm); format: cell-based; conditions: IDO induced with interferon gamma 50 ng/ml, 24 h compound incubation, read-out: Inhibitory Activity (IC50)
T1 sequence (P14902 whole entry): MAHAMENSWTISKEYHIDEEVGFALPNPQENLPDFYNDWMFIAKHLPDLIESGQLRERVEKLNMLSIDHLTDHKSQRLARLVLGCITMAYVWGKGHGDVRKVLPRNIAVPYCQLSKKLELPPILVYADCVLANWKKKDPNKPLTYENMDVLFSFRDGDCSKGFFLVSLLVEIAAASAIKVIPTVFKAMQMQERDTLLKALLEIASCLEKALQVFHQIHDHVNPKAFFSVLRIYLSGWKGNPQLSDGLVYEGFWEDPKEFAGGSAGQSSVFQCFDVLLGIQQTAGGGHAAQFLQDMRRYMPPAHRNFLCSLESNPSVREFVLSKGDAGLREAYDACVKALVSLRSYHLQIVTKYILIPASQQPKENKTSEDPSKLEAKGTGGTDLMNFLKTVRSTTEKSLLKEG
Experimental: Hela cells were seeded at a density of 20000 cells/well in 100 μl of a culture medium (EMEM supplemented with 10% FBS, penicillin 100 U/ml, and streptomycin 100 μg/ml) in a tissue culture-treated 96 well plate. The cells were cultured in a 5% carbon dioxide incubator for 24 hours, treated with recombinant human interferon gamma at the concentration of 50 ng/ml, and then cultured for 48 hours in a 5% carbon dioxide incubator to induce IDO expression.
The activities were measured using IDO1 cellular activity-measuring substrate (IDO1 cellular activity quickDetect supplements catalog: #62000-2, BPS Bioscience). Specifically, an assay medium was prepared by diluting IDO1 assay medium substrate 1 and IDO1 assay medium supplement 2 in a culture medium at a ratio of 1:100, respectively. The test compounds were diluted to the predetermined concentrations in the fresh assay medium. After removing the culture medium using a multi-pipet, 200 μl of each assay medium containing the test material was added into the respective well, followed by incubating in a 5% carbon dioxide incubator for 24 hours. The next day, 140 μl of culture medium from each well was transferred to a new 96-well plate. 10 μl of 6.1N trichloroacetic acid was added into each well, which was then cultured in a 50° C. incubator for 30 minutes. The plate was centrifuged at 2500 rpm for 10 minutes to settle any sediment. A detection reagent solution was prepared by diluting the detection reagent (component D kit, catalog: #62000-2, BPS Bioscience) 50-fold in acetic acid. 100 μl of the supernatant taken from the centrifuged plate was transferred to a new transparent 96-well plate and then 100 μl of the detection reagent solution was added thereto. After reacting at room temperature for 10 minutes, absorbance was measured at 480 nm wavelength. For analysis of the results, the absorbance (At) of the well containing Hela cells in which IDO protein expression was induced without treatment of an inhibitor was 100%; and the absorbance (Ab) of the well containing Hela cells in which IDO protein expression was not induced was 0. The % absorbance was calculated according to the following equation: % Absorbance=(A−Ab)/(At−Ab), A=absorbance of the well treated with the test compound.
The results obtained by calculating the 50% inhibitory concentration (C50) of each compound, from the absorbance values obtained as described above, are shown in Table 1 below.

[2] = Pharmacokinetics through oral administration in normal rats; format: in vivo; conditions: 10 mg/5 mL/kg; for Maximum plasma concentration: suspension in 0.5% methyl cellulose containing 0.2% Tween 80
Experimental: The pharmacokinetics of the compounds of Examples 2, 5 and 25 and BMS-986205 (control) were measured in rats, respectively. The compounds of Examples 2, 5 and 25 and BMS-986205 (control) were each suspended in 0.5% methyl cellulose containing 0.2% Tween 80 and then orally administered to rats at a dose of 10 mg/5 mL/kg. Blood samples were collected from the rat in predetermined times. The concentration of the compound in each sample was analyzed to obtain the blood concentration profiles (FIG. 1).

[3] = molecular target: T1, IDO1; assay: IDO1 cellular activity using HEK293 cells transfected with IDO1 expression vector; format: cell-based; set-up: host or cells: HEK293 cells, transient transfection with Lipofectamine 2000; conditions: 24 h compound incubation, read-out: Inhibitory Activity (IC50)
In short: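 HEK293 cells transiently transfected with IDO1 expression vector, expressed 24 h, then given compound in substrate-containing assay medium for 24 h. Medium TCA-treated 30 min at 50° C; product detected by absorbance at 480 nm, scaled between untreated IDO1-expressing cells (100%) and non-expressing cells (0).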

| SMILES | IC50 [1] [nM] | Area under the curve [2] [ng·h/mL] | Time to maximum plasma concentration [2] [h] | Maximum plasma concentration [2] [ng/mL] | IC50 [3] [nM] |
| --- | --- | --- | --- | --- | --- |
| C[C@@H](C(=O)Nc1ccc(Cl)cc1)C1CCC(c2ccnc3ccc(F)cc23)CC1 (stereo partly shown) [BMS-986205, reference compound] | – | 3976.7 | 1 | 656.8 | – |
| CC[C@H](C[C@H]1CC[C@@H](c2ccnc3ccc(F)cc32)CC1)Nc1nc2ccc(Cl)cc2o1 [Example 27, 6-chloro-N-((R)-1-((cis)-4-(6-fluoroquinolin-4-yl)cyclohexyl)butan-2-yl)benzo[d]oxazol-2-amine] | 23 | – | – | – | 7.4 |
| CCOc1ccc2nc(N[C@H](CC)C[C@H]3CC[C@@H](c4ccnc5ccc(F)cc54)CC3)sc2c1 [Example 20, 6-ethoxy-N-((R)-1-((cis)-4-(6-fluoroquinolin-4-yl)cyclohexyl)butan-2-yl)benzo[d]thiazol-2-amine] | 24 | – | – | – | 14.3 |
| C[C@H](C[C@H]1CC[C@@H](c2ccnc3ccc(F)cc32)CC1)Nc1nc2cccnc2o1 [Example 30, N-((R)-1-((cis)-4-(6-fluoroquinolin-4-yl)cyclohexyl)propan-2-yl)oxazolo[5,4-b]pyridin-2-amine] | 23.5 | – | – | – | 19.1 |

Further lines, results first:

| IC50 [1] [nM] | Area under the curve [2] [ng·h/mL] | Time to maximum plasma concentration [2] [h] | Maximum plasma concentration [2] [ng/mL] | IC50 [3] [nM] | SMILES |
| --- | --- | --- | --- | --- | --- |
| 16 | 73460.2 | 4 | 4476.3 | – | C[C@H](C[C@H]1CC[C@H](c2ccnc3ccc(F)cc32)CC1)Nc1cc(=O)oc2cc(Br)ccc12 [Example 5, 7-bromo-4-(((R)-1-((trans)-4-(6-fluoroquinolin-4-yl)cyclohexyl)propan-2-yl)amino)-2H-chromen-2-one] |
| 12 | – | – | – | 8.6 | C[C@H](C[C@H]1CC[C@@H](c2ccnc3ccc(F)cc32)CC1)Nc1nc2c(F)cccc2o1 [Example 28, 4-fluoro-N-((R)-1-((cis)-4-(6-fluoroquinolin-4-yl)cyclohexyl)propan-2-yl)benzo[d]oxazol-2-amine] |
| 15 | – | – | – | 6.5 | COc1ccc2nc(N[C@H](C)C[C@H]3CC[C@@H](c4ccnc5ccc(F)cc54)CC3)oc2c1 [Example 26, N-((R)-1-((cis)-4-(6-fluoroquinolin-4-yl)cyclohexyl)propan-2-yl)-6-methoxybenzo[d]oxazol-2-amine] |
| 4.4 | 16018 | 2 | 2170.3 | 5.2 | C[C@H](C[C@H]1CC[C@@H](c2ccnc3ccc(F)cc32)CC1)Nc1nc2ccc(Cl)cc2o1 [Example 25, 6-chloro-N-((R)-1-((cis)-4-(6-fluoroquinolin-4-yl)cyclohexyl)propan-2-yl)benzo[d]oxazol-2-amine] |
| 8.8 | 108441.1 | 1 | 18050.3 | – | C[C@H](C[C@H]1CC[C@@H](c2ccnc3ccc(F)cc32)CC1)Nc1ncnc2cc(Br)ccc12 [Example 2, 7-bromo-N-((R)-1-((cis)-4-(6-fluoroquinolin-4-yl)cyclohexyl)propan-2-yl)quinazolin-4-amine] |
| 7.2 | – | – | – | 11.2 | C[C@H](C[C@H]1CC[C@H](c2ccnc3ccc(F)cc32)CC1)Nc1c(F)c(=O)oc2cc(Br)ccc12 [Example 12, 7-bromo-3-fluoro-4-(((R)-1-((trans)-4-(6-fluoroquinolin-4-yl)cyclohexyl)propan-2-yl)amino)-2H-chromen-2-one] |
